Among the test systems are HCC-2998 colon; SF-295 CNS; HL-60(TB) leukemia; MALME-3M melanoma; OVCAR-8 ovarian; OVCAR-4 ovarian; NCI-H460 lung; U251 CNS; LOX IMVI melanoma; RXF 393 renal.
What all share (assay): NCI anticancer screen, dose series, 48 h

Values joined by “and” are separate entries in the source; they are usually repeats but may differ in a detail not shown here. Equal values may be shown once.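 Dose response: 5 concentrations. Exposure: 48 h. Format: 96-well plates. Endpoint: linear interpolation; highest concentration if not reached. Definition used: TGI = concentration required for complete inhibition of growth.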

On to `O=C(/C=C/c1cccc(Br)c1)c1cccs1`, for which the TGI is 61.3 µM with HCC-2998 colon; 30.2 µM with SF-295 CNS; 17.7 µM with HL-60(TB) leukemia; 41.6 µM with MALME-3M melanoma; 37.6 µM in the test with OVCAR-8 ovarian; 31.8 µM in the test with OVCAR-4 ovarian. For the same compound, the TGI worked out at 31.6 µM in the test with NCI-H460 lung and 26.8 µM with U251 CNS.

For the compound `NC(=O)c1nnc2cc(F)ccc2c1N`, the TGI in the test on HCC-2998 colon, in the test on SF-295 CNS, with LOX IMVI melanoma, in the test with HL-60(TB) leukemia, in the test with MALME-3M melanoma and in the test with OVCAR-8 ovarian was above 100 µM each time. Also, the TGI in the test with OVCAR-4 ovarian, in the test on NCI-H460 lung and with U251 CNS was above 100 µM each time.

Take `COc1cc2c(c(OC)c1OC)-c1ccc(SC)c(=O)cc1[C@@H](OC(C)=O)CC2`: the TGI in the test with LOX IMVI melanoma was above 100 µM; with HL-60(TB) leukemia, 0.0242 µM; with MALME-3M melanoma, above 100 µM; in the test with RXF 393 renal, above 100 µM; with OVCAR-8 ovarian, above 100 µM; in the test with OVCAR-4 ovarian, above 100 µM. Further, the TGI in the test on NCI-H460 lung and with U251 CNS was above 100 µM each time.

Regarding `CCCCCCCCCCCCCCCCCCNc1ccn(C2OC(COP(=O)(O)OCC3CCC(n4cnc5c(=O)[nH]cnc54)O3)C(O)C2O)c(=O)n1` (stereo not given), the TGI with SF-295 CNS, in the test on LOX IMVI melanoma, in the test with MALME-3M melanoma, in the test with RXF 393 renal, with OVCAR-8 ovarian and in the test with OVCAR-4 ovarian was above 100 µM each time. Besides, the TGI with NCI-H460 lung and in the test with U251 CNS was above 100 µM each time.

Take `CC(C)SC(C)(NC(=O)C1C(C)(C)CCC1(C)C)C(=O)O` (stereo not given): the TGI in the test with HCC-2998 colon, in the test on LOX IMVI melanoma, in the test with HL-60(TB) leukemia, in the test on NCI-H460 lung and in the test on U251 CNS was above 100 µM throughout.

With `O=C1NC(N/N=C\C(O)C(O)C(O)CO)=N/C1=C/c1ccc(Cl)cc1` (stereo not given), the TGI was above 100 µM in the test on SF-295 CNS; above 100 µM in the test on LOX IMVI melanoma; above 100 µM with HL-60(TB) leukemia; 80.2 µM and > 100 µM in the test on MALME-3M melanoma; above 100 µM in the test with RXF 393 renal; above 100 µM in the test with OVCAR-8 ovarian. The TGI in the test on OVCAR-4 ovarian is 57 µM; in the test with NCI-H460 lung it was above 100 µM; with U251 CNS, above 100 µM.

With `O=C(CN1CCN(Cc2ccccc2)CC1)N1CCCn2c1nc1ccccc1c2=O`, the TGI in the test on HCC-2998 colon, in the test with SF-295 CNS, in the test with LOX IMVI melanoma, in the test on HL-60(TB) leukemia, with MALME-3M melanoma and with OVCAR-8 ovarian was above 100 µM each time. In addition, the TGI with OVCAR-4 ovarian, in the test with NCI-H460 lung and in the test with U251 CNS was above 100 µM each time.

Take `CC(C)CCC[C@@H](C)[C@H]1CCC2C3CC=C4C[C@@H](Oc5c6ccccc6nc6ccccc56)CCC4C3CCC21` (stereo not given in full): the TGI in the test with SF-295 CNS, in the test on LOX IMVI melanoma, in the test with HL-60(TB) leukemia, with MALME-3M melanoma, in the test with RXF 393 renal and with OVCAR-8 ovarian was above 50 µM in each case. The TGI in the test on OVCAR-4 ovarian, in the test on NCI-H460 lung and in the test with U251 CNS was above 50 µM in each case.

For `C=CCOCn1cnc2c(N)ncnc21`, the TGI in the test on HCC-2998 colon, with SF-295 CNS, in the test with LOX IMVI melanoma, in the test on HL-60(TB) leukemia, in the test with MALME-3M melanoma and with OVCAR-8 ovarian was above 100 µM in each case. Further, the TGI in the test with OVCAR-4 ovarian, in the test on NCI-H460 lung and with U251 CNS was above 100 µM throughout.

Consider `c1ccc(C2=Nc3nc4ccccc4n3C(c3ccccc3)C2)cc1` (stereo not given), for which the TGI with SF-295 CNS, in the test with LOX IMVI melanoma, in the test with HL-60(TB) leukemia, in the test on MALME-3M melanoma, in the test on RXF 393 renal and in the test with OVCAR-8 ovarian was above 100 µM in each case. In addition, the TGI with OVCAR-4 ovarian, with NCI-H460 lung and with U251 CNS was above 100 µM throughout.

Take `N=c1nnc(=O)c2c(s1)-n1ncc(C(=O)O)c1NN2`: the TGI with SF-295 CNS, in the test on HL-60(TB) leukemia, in the test with MALME-3M melanoma, in the test with RXF 393 renal, in the test on OVCAR-8 ovarian and in the test on OVCAR-4 ovarian was above 100 µM throughout. The same compound showed a TGI in the test on U251 CNS above 100 µM.

In the case of `CCCCc1c(C(=O)OC(C)(C)C)cc(C#Cc2cc(C(=O)OC(C)(C)C)c(CCCC)c(C(=O)OC(C)(C)C)c2)cc1C(=O)OC(C)(C)C`, the TGI with HCC-2998 colon, in the test on SF-295 CNS, with MALME-3M melanoma, with OVCAR-4 ovarian, with NCI-H460 lung and with U251 CNS was above 100 µM each time.

Regarding `Cc1ccc(S(=O)(=O)/N=C(\NN)Nc2ccc(Cl)cc2)cc1`, the TGI in the test on SF-295 CNS, in the test on LOX IMVI melanoma, in the test with HL-60(TB) leukemia, in the test with RXF 393 renal, with OVCAR-8 ovarian and with OVCAR-4 ovarian was above 100 µM each time. Further, the TGI in the test on NCI-H460 lung and with U251 CNS was above 100 µM each time.

Take `C=CC1ON(Cc2ccccc2)CCc2cc(OC)c(OC)cc21` (stereo not given): the TGI with HCC-2998 colon was above 100 µM; with SF-295 CNS, above 100 µM; with LOX IMVI melanoma, above 100 µM; with HL-60(TB) leukemia, 94.4 µM; in the test on MALME-3M melanoma it was above 100 µM; in the test on OVCAR-8 ovarian it was above 100 µM. For the same compound, the TGI with NCI-H460 lung and in the test on U251 CNS was above 100 µM throughout.

On to `NC(=O)N/N=C/C(/C=N/NC(N)=O)[N+](=O)[O-]`, for which the TGI in the test on SF-295 CNS, in the test on LOX IMVI melanoma, in the test on HL-60(TB) leukemia, with MALME-3M melanoma, in the test with RXF 393 renal and in the test with OVCAR-4 ovarian was above 100 µM in each case.

On to `CN1C(=S)C(c2ccccc2)Sc2ccccc21` (stereo not given), for which the TGI is 89.4 µM in the test with SF-295 CNS; above 100 µM in the test on LOX IMVI melanoma; above 100 µM in the test on HL-60(TB) leukemia; above 100 µM with MALME-3M melanoma; above 100 µM in the test on RXF 393 renal; above 100 µM in the test on OVCAR-8 ovarian. For the same compound, the TGI in the test with OVCAR-4 ovarian, with NCI-H460 lung and in the test on U251 CNS was above 100 µM each time.

Turning to `CN(CN1C(=O)C2Cc3ccccc3CN2C1=O)c1ccccn1` (stereo not given), the TGI in the test on HCC-2998 colon, in the test with SF-295 CNS, in the test with LOX IMVI melanoma, in the test with HL-60(TB) leukemia, in the test with MALME-3M melanoma and in the test with OVCAR-8 ovarian was above 100 µM each time. The TGI in the test with OVCAR-4 ovarian, with NCI-H460 lung and with U251 CNS was above 100 µM throughout.

As to `Cn1c(C(C#N)c2nc(Cl)ncc2Br)nc2ccccc21` (stereo not given), the TGI with SF-295 CNS, in the test on LOX IMVI melanoma, in the test on MALME-3M melanoma, with RXF 393 renal, in the test on OVCAR-8 ovarian and in the test on OVCAR-4 ovarian was above 100 µM each time. Also, the TGI in the test on NCI-H460 lung and in the test with U251 CNS was above 100 µM throughout.

In the case of `CCOC(=O)/C(=C\c1ccc(N(C)C)cc1)S(=O)(=O)C(F)(F)C(F)(F)C(F)(F)C(F)(F)F`, the TGI in the test on HCC-2998 colon, with SF-295 CNS, in the test with LOX IMVI melanoma, in the test with HL-60(TB) leukemia, with MALME-3M melanoma and with OVCAR-8 ovarian was above 100 µM throughout. Moreover, the TGI in the test with OVCAR-4 ovarian, with NCI-H460 lung and in the test on U251 CNS was above 100 µM throughout.

As for `CCC1C(c2cccc(OC)c2O)c2cc3c(cc2OC1N1CCCC1)OCO3` (stereo not given), the TGI was determined as 21.9 µM with HCC-2998 colon; 50.8 µM in the test on SF-295 CNS; 84.6 µM with LOX IMVI melanoma; 89.9 µM in the test with OVCAR-8 ovarian; 55.3 µM in the test with NCI-H460 lung.

For the compound `O=C(Nc1cccc(C(F)(F)F)c1)O/N=C(/Cl)CCl`, the TGI in the test on HCC-2998 colon is above 100 µM; in the test on SF-295 CNS it was above 100 µM; with LOX IMVI melanoma, 69.9 µM; with HL-60(TB) leukemia, 38.7 µM; in the test with MALME-3M melanoma, above 100 µM; in the test on OVCAR-8 ovarian, above 100 µM. For the same compound, the TGI with OVCAR-4 ovarian, in the test on NCI-H460 lung and in the test with U251 CNS was above 100 µM throughout.

As for `Cc1ccc(OCC2OC(n3cnc4c(N(C)C)nc(Br)nc43)CC2Oc2ccc(C)cc2)cc1` (stereo not given), the TGI with HCC-2998 colon, in the test on SF-295 CNS, in the test on LOX IMVI melanoma, in the test with HL-60(TB) leukemia, in the test on MALME-3M melanoma and with OVCAR-8 ovarian was above 100 µM throughout. Moreover, the TGI with OVCAR-4 ovarian, in the test with NCI-H460 lung and in the test on U251 CNS was above 100 µM throughout.

On to `Cc1ccsc1/C=N/Nc1cc(C)c2cccc(C)c2n1`, for which the TGI in the test on HCC-2998 colon is above 100 µM; in the test with SF-295 CNS, above 100 µM; with HL-60(TB) leukemia, 71.2 µM; with OVCAR-8 ovarian, above 100 µM; with OVCAR-4 ovarian, above 100 µM; with U251 CNS, above 100 µM.

In the case of `O=c1/c(=C\c2ccccc2)sc2n1C(c1ccccc1)C1(O)CCCCC1N=2` (stereo not given), the TGI in the test with HCC-2998 colon, in the test on LOX IMVI melanoma, with HL-60(TB) leukemia, with MALME-3M melanoma, in the test on OVCAR-8 ovarian and in the test on OVCAR-4 ovarian was above 100 µM throughout. Also, the TGI with NCI-H460 lung and in the test on U251 CNS was above 100 µM in each case.
